molecular target: recombinant human CCR5 receptor (Homo sapiens, UniProt P51681); assay: MIP-1α radioligand binding assay (scintillation proximity); conditions: displacement of 0.1 nM iodinated MIP-1α; membranes from Chinese hamster ovary cells expressing recombinant human CCR5; average if tested more than once
Protocol: The ability of compounds to inhibit the binding of MIP-1α was assessed by an in vitro radioligand binding assay. Membranes were prepared from Chinese hamster ovary cells which expressed the recombinant human CCR5 receptor. These membranes were incubated with 0.1 nM iodinated MIP-1α, scintillation proximity beads and various concentrations of the compounds of the invention in 96-well plates. The amount of iodinated MIP-1α bound to the receptor was determined by scintillation counting. Competition curves were obtained for compounds and the concentration of compound which displaced 50% of bound iodinated MIP-1α was calculated (IC50).
In Table X the results are presented as Pic50 values. A Pic50 value is the negative log (to base 10) of the IC50 result, so an IC50 of 1 μM (that is 1×10^−6M) gives a Pic50 of 6. If a compound was tested more than once then the data below is an average of the probative tests results.

Sequence of recombinant human CCR5 receptor (P51681 whole entry): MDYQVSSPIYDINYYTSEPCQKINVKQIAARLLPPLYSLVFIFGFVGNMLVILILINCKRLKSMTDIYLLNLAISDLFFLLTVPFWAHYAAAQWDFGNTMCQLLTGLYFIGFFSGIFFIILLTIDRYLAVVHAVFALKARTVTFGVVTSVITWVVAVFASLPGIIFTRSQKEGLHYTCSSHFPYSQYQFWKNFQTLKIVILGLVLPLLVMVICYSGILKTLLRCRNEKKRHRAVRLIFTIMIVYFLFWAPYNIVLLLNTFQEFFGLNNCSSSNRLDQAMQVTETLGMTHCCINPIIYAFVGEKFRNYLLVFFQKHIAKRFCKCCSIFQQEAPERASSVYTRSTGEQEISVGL

| Structure (SMILES) | IC50 [nM] |
| --- | --- |
| CC1(CCS(=O)(=O)c2ccc(S(C)(=O)=O)cc2)CCN(CC[C@@H](c2ccccc2)N2CCN(S(C)(=O)=O)CC2)CC1 [Table II Compound 18, 1-{(1S)-3-[4-methyl-4-(2-{[4-(methylsulfonyl)phenyl]sulfonyl}ethyl)piperidin-1-yl]-11-phenylpropyl)-4-(methylsulfonyl)piperazine] | 0.631 |
| CC1(CCS(=O)(=O)c2ccc(S(C)(=O)=O)cc2)CCN(CC[C@H](c2ccc(S(C)(=O)=O)cc2)c2cc(F)cc(F)c2)CC1 [Table I Compound 1, 1-{(3R)-3-(3,5-difluorophenyl)-3-[4-(methylsulfonyl)phenyl]propyl}-4-methyl-4-(2-{[4-(methylsulfonyl)phenyl]sulfonyl}ethyl)piperidine] | 0.251 |
| CC1(CCS(=O)(=O)c2ccc(S(C)(=O)=O)cc2)CCN(CC[C@@H](c2cc(F)cc(F)c2)N2CCN(S(C)(=O)=O)CC2)CC1 [Table II Compound 19, 1-{(1S)-1-(3,5-difluorophenyl)-3-[4-methyl-4-(2-{[4-(methylsulfonyl)phenyl]sulfonyl}ethyl)piperidin-1-yl]propyl}-4-(methylsulfonyl)piperazine] | 2 |

Second part, the molecule after the results:

| IC50 [nM] | Structure (SMILES) |
| --- | --- |
| 2 | CC1(CCS(=O)(=O)C2CCN(S(C)(=O)=O)CC2)CCN(CC[C@@H](c2cc(F)cc(F)c2)C2CCN(S(C)(=O)=O)CC2)CC1 [Table VIII Compound 2, 1-{(3R)-3-(3,5-difluorophenyl)-3-[1-(methylsulfonyl)piperidin-4-yl]propyl}-4-methyl-4-(2-{[1-(methylsulfonyl)piperidin-4-yl]sulfonyl}ethyl)piperidine] |
| 5.01 | COc1ccc(S(=O)(=O)CCC2(C)CCN(CC[C@@H](c3cc(F)cc(F)c3)N3CCN(S(C)(=O)=O)CC3)CC2)cc1 [Table II Compound 20, 1-[(1S)-1-(3,5-difluorophenyl)-3-(4-{2-[(4-methoxyphenyl)sulfonyl]ethyl}-4-methylpiperidin-1-yl)propyl]-4-(methylsulfonyl)piperazine] |
| 7.94 | CC1(CCS(=O)(=O)C2CCN(C(=O)OCc3ccccc3)CC2)CCN(CC[C@@H](c2cc(F)cc(F)c2)C2CCN(S(C)(=O)=O)CC2)CC1 [Table VIII Compound 1, benzyl 4-{[2-(1-{(3R)-3-(3,5-difluorophenyl)-3-[1-(methylsulfonyl)piperidin-4-yl]propyl}-4-methylpiperidin-4-yl)ethyl]sulfonyl}piperidine-1-carboxylate] |
